One block for each molecule: values may come before it. Activity calls are given as the source filed them.
What was measured:
[1] = biological target: T1, Calpain-2 catalytic subunit (Sus scrofa, UniProt P43367); experiment: pig calpain II inhibitor potency, dose response, biochemical, fluorogenic peptide substrate (AID 1420); format: functional
T1 sequence (P43367 whole entry): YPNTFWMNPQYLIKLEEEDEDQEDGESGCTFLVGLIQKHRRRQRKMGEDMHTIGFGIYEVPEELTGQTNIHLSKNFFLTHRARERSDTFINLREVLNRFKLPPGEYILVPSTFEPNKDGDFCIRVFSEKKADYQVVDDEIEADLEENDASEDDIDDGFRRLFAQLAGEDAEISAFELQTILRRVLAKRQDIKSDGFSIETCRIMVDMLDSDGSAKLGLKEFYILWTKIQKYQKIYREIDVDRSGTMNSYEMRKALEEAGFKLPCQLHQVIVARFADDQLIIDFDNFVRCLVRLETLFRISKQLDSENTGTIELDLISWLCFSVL

SUMO-activating enzyme [2] = biological target: T2, SUMO-activating enzyme (Homo sapiens, UniProt Q9UBT2); experiment: SUMOylation inhibitor hit validation, confirmation, SUMOylation inhibitor project, biochemical, AlphaScreen (AID 2018); format: functional
T2 sequence (Q9UBE0 whole entry): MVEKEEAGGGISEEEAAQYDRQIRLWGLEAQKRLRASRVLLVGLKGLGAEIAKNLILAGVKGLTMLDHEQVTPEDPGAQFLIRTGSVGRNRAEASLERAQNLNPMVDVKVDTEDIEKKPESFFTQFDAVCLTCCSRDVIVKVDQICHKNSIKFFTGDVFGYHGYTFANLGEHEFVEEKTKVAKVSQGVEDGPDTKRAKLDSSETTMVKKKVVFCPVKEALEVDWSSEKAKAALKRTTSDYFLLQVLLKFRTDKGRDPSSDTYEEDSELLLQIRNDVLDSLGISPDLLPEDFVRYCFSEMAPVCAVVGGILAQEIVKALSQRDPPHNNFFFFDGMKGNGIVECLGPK
T2 sequence (Q9UBT2 whole entry): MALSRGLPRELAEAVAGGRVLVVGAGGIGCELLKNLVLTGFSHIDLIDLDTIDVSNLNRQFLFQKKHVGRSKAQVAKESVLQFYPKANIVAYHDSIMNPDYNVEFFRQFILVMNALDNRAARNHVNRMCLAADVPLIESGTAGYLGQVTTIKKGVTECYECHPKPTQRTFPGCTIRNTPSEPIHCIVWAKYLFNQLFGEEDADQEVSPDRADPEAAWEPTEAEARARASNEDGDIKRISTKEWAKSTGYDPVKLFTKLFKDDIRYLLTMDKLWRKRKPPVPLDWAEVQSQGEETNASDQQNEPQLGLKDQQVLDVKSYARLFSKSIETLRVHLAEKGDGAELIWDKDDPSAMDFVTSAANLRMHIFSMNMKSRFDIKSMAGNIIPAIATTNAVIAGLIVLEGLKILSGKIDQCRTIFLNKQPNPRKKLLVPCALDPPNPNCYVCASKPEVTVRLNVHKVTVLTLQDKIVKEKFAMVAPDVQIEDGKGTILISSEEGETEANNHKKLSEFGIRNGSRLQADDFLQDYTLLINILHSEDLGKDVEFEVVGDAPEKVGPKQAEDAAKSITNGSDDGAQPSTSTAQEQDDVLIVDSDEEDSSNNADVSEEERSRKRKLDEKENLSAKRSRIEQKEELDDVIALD

SUMO-activating enzyme [3] = biological target: T2, SUMO-activating enzyme; experiment: inhibitors of in vitro SUMOylation cascade, primary screen, biochemical, HTRF, uHTS (AID 2006); format: protein-complex assay
Aminopeptidase N = biological target: T3, Aminopeptidase N (Plasmodium falciparum FcB1/Columbia, UniProt O96935); experiment: P. falciparum M1AAP inhibitors, biochemical, fluorogenic H-Leu-NHMec substrate, 1536-well (AID 1445); parameters: species or system Plasmodium falciparum 3D7, 3D7
T3 sequence (O96935 whole entry): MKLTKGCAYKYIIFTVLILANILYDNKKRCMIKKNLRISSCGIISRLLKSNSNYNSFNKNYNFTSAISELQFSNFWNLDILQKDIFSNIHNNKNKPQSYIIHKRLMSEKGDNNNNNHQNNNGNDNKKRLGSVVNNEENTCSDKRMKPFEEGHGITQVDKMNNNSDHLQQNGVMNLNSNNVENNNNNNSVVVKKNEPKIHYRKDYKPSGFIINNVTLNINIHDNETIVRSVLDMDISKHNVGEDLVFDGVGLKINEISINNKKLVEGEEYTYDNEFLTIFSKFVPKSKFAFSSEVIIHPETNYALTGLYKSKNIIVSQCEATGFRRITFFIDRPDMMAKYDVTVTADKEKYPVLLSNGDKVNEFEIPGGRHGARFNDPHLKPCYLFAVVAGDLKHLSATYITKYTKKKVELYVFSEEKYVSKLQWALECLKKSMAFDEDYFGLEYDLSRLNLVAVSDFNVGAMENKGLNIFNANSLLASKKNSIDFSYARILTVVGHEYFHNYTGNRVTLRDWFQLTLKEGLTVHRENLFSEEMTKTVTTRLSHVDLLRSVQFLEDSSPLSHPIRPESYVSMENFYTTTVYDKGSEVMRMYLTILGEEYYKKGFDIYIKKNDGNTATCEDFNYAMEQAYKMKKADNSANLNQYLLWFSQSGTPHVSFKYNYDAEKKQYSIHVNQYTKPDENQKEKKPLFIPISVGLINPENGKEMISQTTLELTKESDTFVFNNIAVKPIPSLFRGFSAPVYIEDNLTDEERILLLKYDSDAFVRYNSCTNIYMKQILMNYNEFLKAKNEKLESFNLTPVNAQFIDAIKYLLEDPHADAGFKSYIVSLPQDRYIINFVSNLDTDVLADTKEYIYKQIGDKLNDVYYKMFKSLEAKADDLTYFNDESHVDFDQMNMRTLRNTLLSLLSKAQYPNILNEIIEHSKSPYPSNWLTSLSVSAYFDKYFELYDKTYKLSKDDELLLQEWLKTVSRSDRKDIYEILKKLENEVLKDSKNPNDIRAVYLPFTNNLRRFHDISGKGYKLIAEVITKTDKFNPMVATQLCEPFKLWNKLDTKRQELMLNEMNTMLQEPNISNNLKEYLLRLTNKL

[4] = biological target: Photoreceptor-specific nuclear receptor (Homo sapiens, UniProt Q9Y5X4); format: functional;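 further: potency for compounds that break the NR2E3 corepressor complex and count as activators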
Chain of Photoreceptor-specific nuclear receptor (Q9Y5X4 whole entry): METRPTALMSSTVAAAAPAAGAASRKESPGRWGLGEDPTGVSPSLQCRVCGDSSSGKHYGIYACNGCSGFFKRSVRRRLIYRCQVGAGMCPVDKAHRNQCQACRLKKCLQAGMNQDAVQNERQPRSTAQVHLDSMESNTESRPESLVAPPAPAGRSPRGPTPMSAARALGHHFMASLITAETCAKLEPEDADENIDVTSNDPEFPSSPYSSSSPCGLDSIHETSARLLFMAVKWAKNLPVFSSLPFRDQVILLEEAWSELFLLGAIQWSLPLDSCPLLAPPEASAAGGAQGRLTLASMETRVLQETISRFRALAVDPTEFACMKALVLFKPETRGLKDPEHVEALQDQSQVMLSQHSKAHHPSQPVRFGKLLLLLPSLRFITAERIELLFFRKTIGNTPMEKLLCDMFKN

[5] = biological target: T4, Trace amine-associated receptor 1 (Homo sapiens, UniProt Q96RJ0); experiment: Fluorescence-based cell-based high throughput dose response assay to identify agonists of the human trace amine associated receptor 1 (TAAR1).; format: functional
T4 sequence (Q96RJ0 whole entry): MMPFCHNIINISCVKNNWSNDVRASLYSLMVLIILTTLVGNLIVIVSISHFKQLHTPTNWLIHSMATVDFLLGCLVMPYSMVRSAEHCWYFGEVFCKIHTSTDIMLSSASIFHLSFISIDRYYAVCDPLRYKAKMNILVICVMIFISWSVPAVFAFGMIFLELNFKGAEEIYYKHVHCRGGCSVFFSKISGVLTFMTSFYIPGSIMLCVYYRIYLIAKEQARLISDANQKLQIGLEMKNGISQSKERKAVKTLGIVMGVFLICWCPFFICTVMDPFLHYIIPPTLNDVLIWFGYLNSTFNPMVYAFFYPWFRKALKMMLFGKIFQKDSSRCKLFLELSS

cells [6] = format: functional, cell-based
[7] = biological target: Peroxisome proliferator-activated receptor gamma/Nuclear receptor corepressor 2 (Homo sapiens, UniProt P37231+Q9Y618); format: functional
Chain of Peroxisome proliferator-activated receptor gamma/Nuclear receptor corepressor 2 (P37231 whole entry): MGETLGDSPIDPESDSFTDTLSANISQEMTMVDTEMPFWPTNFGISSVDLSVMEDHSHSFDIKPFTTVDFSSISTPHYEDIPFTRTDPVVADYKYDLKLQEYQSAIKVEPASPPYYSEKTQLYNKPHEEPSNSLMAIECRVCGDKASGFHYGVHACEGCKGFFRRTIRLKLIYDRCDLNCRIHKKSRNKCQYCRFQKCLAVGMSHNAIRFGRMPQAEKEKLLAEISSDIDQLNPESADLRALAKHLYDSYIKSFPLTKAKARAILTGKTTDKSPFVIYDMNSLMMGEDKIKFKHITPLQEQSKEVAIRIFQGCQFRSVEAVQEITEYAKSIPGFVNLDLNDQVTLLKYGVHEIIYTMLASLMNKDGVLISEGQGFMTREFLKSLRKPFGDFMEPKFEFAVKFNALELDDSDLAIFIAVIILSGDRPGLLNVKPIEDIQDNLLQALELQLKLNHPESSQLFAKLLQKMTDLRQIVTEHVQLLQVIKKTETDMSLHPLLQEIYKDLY
Chain of Peroxisome proliferator-activated receptor gamma/Nuclear receptor corepressor 2 (Q9Y618 whole entry): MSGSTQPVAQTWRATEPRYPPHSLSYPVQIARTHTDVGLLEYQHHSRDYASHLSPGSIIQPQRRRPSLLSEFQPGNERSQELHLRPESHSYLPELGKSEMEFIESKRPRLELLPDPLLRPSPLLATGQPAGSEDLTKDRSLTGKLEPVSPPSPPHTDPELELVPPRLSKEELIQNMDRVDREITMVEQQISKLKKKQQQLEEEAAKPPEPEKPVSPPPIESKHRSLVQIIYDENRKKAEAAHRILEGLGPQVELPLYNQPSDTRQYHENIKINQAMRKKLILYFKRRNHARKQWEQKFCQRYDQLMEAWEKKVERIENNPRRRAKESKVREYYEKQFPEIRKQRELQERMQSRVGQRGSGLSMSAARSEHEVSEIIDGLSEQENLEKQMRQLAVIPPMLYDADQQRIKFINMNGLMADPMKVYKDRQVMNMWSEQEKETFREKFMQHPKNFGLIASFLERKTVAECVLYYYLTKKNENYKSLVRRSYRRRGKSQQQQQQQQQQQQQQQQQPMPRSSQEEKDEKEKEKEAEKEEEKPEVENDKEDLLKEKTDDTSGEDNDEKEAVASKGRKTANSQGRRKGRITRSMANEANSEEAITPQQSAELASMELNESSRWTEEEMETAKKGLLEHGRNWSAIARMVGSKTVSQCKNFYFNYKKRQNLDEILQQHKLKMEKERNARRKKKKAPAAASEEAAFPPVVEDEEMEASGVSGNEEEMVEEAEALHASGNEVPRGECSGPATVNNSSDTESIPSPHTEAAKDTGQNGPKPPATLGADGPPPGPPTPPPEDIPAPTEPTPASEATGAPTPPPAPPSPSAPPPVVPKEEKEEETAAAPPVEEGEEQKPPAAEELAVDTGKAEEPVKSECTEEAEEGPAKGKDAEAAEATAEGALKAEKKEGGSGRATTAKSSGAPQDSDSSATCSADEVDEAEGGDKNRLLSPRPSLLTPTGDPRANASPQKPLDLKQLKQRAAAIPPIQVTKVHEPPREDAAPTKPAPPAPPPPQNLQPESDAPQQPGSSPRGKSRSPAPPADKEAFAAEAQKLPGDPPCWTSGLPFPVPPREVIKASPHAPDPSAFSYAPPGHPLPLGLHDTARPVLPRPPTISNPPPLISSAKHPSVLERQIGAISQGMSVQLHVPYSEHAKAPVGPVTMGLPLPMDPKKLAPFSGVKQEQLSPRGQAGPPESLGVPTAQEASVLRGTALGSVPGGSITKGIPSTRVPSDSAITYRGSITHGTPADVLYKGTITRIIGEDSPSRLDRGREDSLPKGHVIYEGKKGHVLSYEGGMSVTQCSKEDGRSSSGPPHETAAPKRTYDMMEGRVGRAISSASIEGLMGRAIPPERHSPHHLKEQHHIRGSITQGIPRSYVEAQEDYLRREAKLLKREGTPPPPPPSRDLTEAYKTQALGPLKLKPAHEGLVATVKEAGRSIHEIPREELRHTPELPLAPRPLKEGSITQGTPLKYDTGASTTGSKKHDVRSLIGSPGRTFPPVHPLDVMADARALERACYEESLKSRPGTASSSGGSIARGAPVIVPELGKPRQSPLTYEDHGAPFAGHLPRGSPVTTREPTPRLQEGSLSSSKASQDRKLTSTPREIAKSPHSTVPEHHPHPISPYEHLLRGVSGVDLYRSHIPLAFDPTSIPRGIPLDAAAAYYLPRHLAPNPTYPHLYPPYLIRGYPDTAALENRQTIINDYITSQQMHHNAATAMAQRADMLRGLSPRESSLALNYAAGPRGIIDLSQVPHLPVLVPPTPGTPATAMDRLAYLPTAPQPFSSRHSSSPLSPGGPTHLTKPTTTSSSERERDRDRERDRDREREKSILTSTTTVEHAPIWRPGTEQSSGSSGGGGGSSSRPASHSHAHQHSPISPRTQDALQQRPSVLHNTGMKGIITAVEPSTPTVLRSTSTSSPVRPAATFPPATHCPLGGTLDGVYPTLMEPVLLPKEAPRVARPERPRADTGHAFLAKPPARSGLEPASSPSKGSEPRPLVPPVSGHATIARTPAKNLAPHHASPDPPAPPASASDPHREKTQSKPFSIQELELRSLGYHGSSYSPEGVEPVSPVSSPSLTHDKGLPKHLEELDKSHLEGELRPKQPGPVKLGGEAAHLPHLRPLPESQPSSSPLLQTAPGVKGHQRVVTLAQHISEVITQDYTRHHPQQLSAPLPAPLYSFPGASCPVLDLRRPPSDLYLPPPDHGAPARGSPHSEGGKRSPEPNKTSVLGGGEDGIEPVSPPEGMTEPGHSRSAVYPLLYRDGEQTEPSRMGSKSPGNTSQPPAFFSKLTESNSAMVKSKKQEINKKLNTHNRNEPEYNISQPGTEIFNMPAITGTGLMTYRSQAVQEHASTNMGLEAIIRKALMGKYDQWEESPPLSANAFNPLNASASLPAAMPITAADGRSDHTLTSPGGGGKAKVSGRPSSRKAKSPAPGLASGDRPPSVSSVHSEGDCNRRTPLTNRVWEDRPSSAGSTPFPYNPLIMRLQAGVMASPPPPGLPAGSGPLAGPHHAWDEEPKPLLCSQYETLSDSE

cells [8] = format: functional, cell-based; remark: listed apart in the source
[9] = biological target: T4, Trace amine-associated receptor 1; experiment: Counterscreen for agonists of the human trace amine associated receptor 1 (hTAAR1): Fluorescence-based cell-based high throughput dose response assay to identify hTAAR1 agonist that also desensitize TAAR1 receptor response.; format: functional
Leucine aminopeptidase = biological target: T5, Leucine aminopeptidase (Plasmodium falciparum 3D7, UniProt Q8IL11); experiment: P. falciparum M17LAP inhibitors, primary screen, biochemical, fluorogenic H-Leu-NHMec substrate, 1536-well (AID 1619); format: functional
T5 sequence (Q8IL11 whole entry): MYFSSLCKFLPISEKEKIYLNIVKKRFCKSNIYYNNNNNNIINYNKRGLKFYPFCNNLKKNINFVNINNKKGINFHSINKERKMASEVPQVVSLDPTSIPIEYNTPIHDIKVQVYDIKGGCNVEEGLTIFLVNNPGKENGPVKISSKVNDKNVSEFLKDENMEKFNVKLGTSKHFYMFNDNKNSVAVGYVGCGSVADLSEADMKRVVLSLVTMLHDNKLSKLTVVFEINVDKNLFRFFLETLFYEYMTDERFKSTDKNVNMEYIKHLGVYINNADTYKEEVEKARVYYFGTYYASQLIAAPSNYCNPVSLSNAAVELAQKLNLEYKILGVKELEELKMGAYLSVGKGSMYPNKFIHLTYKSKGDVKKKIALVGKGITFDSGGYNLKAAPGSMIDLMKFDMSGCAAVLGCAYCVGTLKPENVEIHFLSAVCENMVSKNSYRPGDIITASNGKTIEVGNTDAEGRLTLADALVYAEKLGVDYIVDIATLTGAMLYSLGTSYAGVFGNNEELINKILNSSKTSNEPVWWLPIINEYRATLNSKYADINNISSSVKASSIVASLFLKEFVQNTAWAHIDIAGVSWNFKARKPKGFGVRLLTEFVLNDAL

[10] = biological target: T6, Short transient receptor potential channel 4 (Mus musculus, UniProt Q9QUQ5); experiment: mouse TRPC4 channel activators, dose response, cell-based, HEK293 TRPC4/mu-opioid, Fluo-4 calcium (AID 434937); format: functional
T6 sequence (Q9QUQ5 whole entry): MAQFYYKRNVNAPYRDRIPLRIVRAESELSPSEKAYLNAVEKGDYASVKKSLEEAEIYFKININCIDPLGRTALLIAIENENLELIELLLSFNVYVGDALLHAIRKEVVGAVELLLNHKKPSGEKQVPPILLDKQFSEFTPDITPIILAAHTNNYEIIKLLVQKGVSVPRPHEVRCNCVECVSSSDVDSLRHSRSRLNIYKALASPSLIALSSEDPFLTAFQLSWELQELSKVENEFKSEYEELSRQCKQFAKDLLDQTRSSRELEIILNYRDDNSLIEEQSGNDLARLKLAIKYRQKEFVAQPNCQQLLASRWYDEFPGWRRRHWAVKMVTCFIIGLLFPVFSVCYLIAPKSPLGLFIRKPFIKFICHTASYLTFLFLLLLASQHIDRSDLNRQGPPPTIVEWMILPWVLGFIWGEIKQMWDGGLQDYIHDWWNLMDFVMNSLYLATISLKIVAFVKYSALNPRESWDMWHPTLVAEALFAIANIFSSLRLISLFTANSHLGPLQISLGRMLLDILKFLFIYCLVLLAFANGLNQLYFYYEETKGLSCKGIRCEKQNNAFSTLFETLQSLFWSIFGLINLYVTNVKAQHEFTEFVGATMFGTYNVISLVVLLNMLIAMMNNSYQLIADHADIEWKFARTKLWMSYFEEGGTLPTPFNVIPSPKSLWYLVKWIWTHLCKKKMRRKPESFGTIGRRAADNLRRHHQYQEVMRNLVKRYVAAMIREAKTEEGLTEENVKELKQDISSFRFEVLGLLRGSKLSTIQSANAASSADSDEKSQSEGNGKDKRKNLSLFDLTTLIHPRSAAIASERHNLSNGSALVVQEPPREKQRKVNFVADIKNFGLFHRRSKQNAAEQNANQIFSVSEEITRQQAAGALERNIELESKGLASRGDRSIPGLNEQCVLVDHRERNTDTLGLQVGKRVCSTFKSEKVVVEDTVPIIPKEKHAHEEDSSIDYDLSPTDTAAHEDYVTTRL

[11] = system: Streptococcus sp. 'group A'; experiment: growth inhibition of control SK(-) GAS strain, dose response, counter-screen for streptokinase expression inhibitor project, luminescence, kanamycin, BacTiterGlo, confirmation (AID 1900); format: functional, organism-based
Streptococcus = experiment: Group A Streptococcus viability loss, dose response, counter-screen for streptokinase expression inhibitor project, luminescence, BacTiterGlo (AID 1915); format: functional, organism-based;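 further: potency for reduction of bacterial viability or growth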
[12] = biological target: T6, Short transient receptor potential channel 4; experiment: mouse TRPC4 channel inhibitors, dose response, cell-based, HEK293 TRPC4/mu-opioid, Fluo-4 calcium (AID 434942); format: functional;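 further: potency of inhibitors blocking the TRPC4 calcium response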
[13] = biological target: Voltage-dependent T-type calcium channel subunit alpha-1H (Homo sapiens, UniProt O95180); format: functional;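 further: channel activity triggered by adding a high calcium stimulation buffer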

Compound: O=c1c(C(c2ccccc2)c2c(O)sc3ccccc3c2=O)c(O)sc2ccccc12
IC50 [1]: 4.29 µM (not active) | IC50 (SUMO-activating enzyme [2]): 4.11 µM (active) | IC50 (SUMO-activating enzyme [3]): 11.3 µM (active)

IC50 (Aminopeptidase N): 39 µM (active)
Compound: COc1ccc(NC(=O)[C@@H](NC(=O)c2ccccc2)C(C)C)cc1S(=O)(=O)N1CCCCC1

Compound: CC1NC(=O)NC1CCCCCC(=O)NCCc1ccccc1 (stereo not drawn)
IC50 [4]: 1.06 µM (active) | EC50 [5]: 1.93 µM (active) | IC50 (cells [6]): > 29.9 µM (inactive) | IC50 [7]: 3.01 µM (active) | EC50 (cells [8]): > 29.9 µM (inactive) | IC50 [9]: 6.36 µM (active)

IC50 (Leucine aminopeptidase): 28.3 µM (active) | IC50 (Aminopeptidase N): 61.6 µM (active)
Compound: O=C(CSc1n[nH]c2c3ccccc3nc-2n1)Nc1ccc(S(=O)(=O)Nc2ncccn2)cc1

IC50 (Aminopeptidase N): 45.7 µM (active)
Compound: O=C(Nc1ccc2c(c1)OCO2)C1CCN(S(=O)(=O)c2ccc3c(c2)OCCO3)CC1

Compound: O=C(NC(=S)NNC(=O)c1ccco1)c1ccc(Br)cc1
EC50 [10]: 5.96 µM (active) | EC50 [11]: 1.03 µM (active) | EC50 (Streptococcus): 2.16 µM (active) | EC50 [12]: 13.3 µM (active)

EC50 [13]: 4.08 µM (active)
Compound: COc1ccccc1N1CCN(CC(=O)Nc2ccc(Cl)c(C(F)(F)F)c2)CC1
